Test results published in patent publication US12589107B2, “Composition containing nicotinamide mononucleotide and mogroside, and application thereof” (Beijing Hebabiz Biotechnology Co., Inc., priority 2019, dated 2026).

Experiments:
3T3-L1 preadipocytes = experiment: Induced differentiation of 3T3-L1 preadipocytes, Oil Red O staining of lipid droplets; type: cell-based; conditions: 10 mM each, 8 days of induced differentiation, P<0.01
Description: 2 days after the 3T3-L1 preadipocytes grew to complete confluence, the induction of differentiation began. That is, the DMEM complete medium was discarded, and replaced with DMEM complete medium containing 5 ug/ml insulin, 0.5 mM IBMX, 1 uM dexamethasone, and after 2 days, it was replaced with DMEM complete culture medium containing 5 ug/ml insulin and cultured for 2 days. Then DMEM complete culture medium was used to continue culturing for 2 days. From the first day of differentiation, the experimental group was given a culture medium containing 10 mM GX999 or 10 mM GX008A to intervene in the whole process of cell differentiation, and the control group was added with conventional inducers.
After 8 days of induced differentiation, the cells were fixed with 4% paraformaldehyde for 30 minutes, washed 3 times with balanced salt solution (PBS), incubated with oil red O staining solution for 60 minutes, the pipetted liquid was rinsed 3 times with PBS, and observed for the formation of lipid droplets under an inverted microscope and a video was taken. Isopropanol (200 ul per well) was added, and the absorbance at A490 nm was measured with a microplate reader after 5 minutes.
Based on the results of the above-mentioned combination application experiment, the drug concentration and combination concentration were selected. […]

3T3L1 preadipocytes = experiment: MTT cell viability assay, proliferation of 3T3L1 preadipocytes (with Calcusyn combination index); type: cell-based; conditions: 48 hours; for survival rate of 3T3L1 cells / cell proliferation, single agent: GX999 10-60 mM, GX008A 5-200 mM, P<0.01 vs blank control
Description: 3T3L1 cells were placed in DMEM high-glucose medium containing 10% calf serum and cultured at 37° C. and 5% CO2. When the cells reached 90% confluence, they were digested with 0.25% trypsin, passaged, and inoculated in a 96-well cell culture plate.
The logarithmic growth phase cells were taken and inoculated in a 96-well plate at a density of 5×10^3 cells/mL, with 4 replicate wells in each group. After the cells grew to about 40%-50% confluence, the fresh drug-containing medium was replaced with and they were divided into a GX999 alone group, a GX008A group, and a GX999+GX008A combination group. After culturing for 48h, MTT 20 ul (5 mg/mL) was added to each well and incubated for 4h. Then the culture medium was discarded, 150 ul DMSO was added to each well and shaken for 10 minutes, and the OD value of the optical density was detected at 490 nm with a microplate reader, and the cell survival rate was calculated according to the formula. Analysis of drug synergy:
(§1) Combination method: 10 mM GX999 in combination with GX008A (0, 5, 10, 30, 50 mM) group. According to the inhibition rates of different concentrations of drugs alone and in combination, the Calcusyn software was used to analyze and process data such as the inhibition rates of GX999 and GX008A alone at different concentrations and the inhibition rates in combination at corresponding concentrations to obtain the combination index (CI) value. According to the definition of combination index, the synergistic effect of drugs was judged, and the synergistic effect is indicated by less than 1.0, and the antagonistic effect is indicated by greater than 1.0.

[1] = tested on: alloxan-damaged RINm5f cells; experiment: MTT cell viability assay, protection against alloxan-induced islet β-cell damage (with Calcusyn combination index); type: cell-based, rat; conditions: for combination index CI value with alloxan: agent 0.5, 1, 5, 10 mM with alloxan 15 mM, Calcusyn, >1.0 = antagonistic (cytoprotective); for cell survival rate of alloxan-damaged pancreatic β-cells, single agent: alloxan 15 mM, agent 0.5, 1, 5, 10 mM, pretreated 1 h, 24 h, significant vs AXN group at 5 mM (P<0.05) and 10 mM (P<0.01)
Description: RINm5F cells were cultured to the logarithmic growth phase, inoculated in 96-well culture plates at a cell density of 5×10^4/ml, cultured for 24 hours, and then drugs were added. The experiment was divided into a negative control group, an alloxan damage group (AXN group) and a protection group. Both the AXN group and the protection group were added with alloxan at a final concentration of 15 mM, and the protection group was added with different concentrations of GX999 and GX008A, pretreated for 1h. The experiment set up 4 duplicate wells and the experiment was repeated three times.
RINm5F cells were cultured to the logarithmic growth phase, inoculated in 96-well culture plates at a cell density of 5×10^4/ml, cultured for 24 hours, and then drugs were added. The experiment was divided into a negative control group, an alloxan damage group (AXN group) and a protection group. Both the AXN group and the protection group were added with alloxan at a final concentration of 15 mM, and the protection group was added with different concentrations of GX999 and GX008A, pretreated for 1h. The experiment set up 4 duplicate wells and they were placed in a carbon dioxide incubator for regular culture for 24 hours. MTT 20 ul (5 mg/mL) was added to each well and incubated for 4 hours. Then the culture medium was discarded, 150 ul DMSO was added to each well and shaken for 10 minutes, and the OD value of the optical density was detected at 490 nm with a microplate reader.
as §1, with “According” for “Combination method: 10 mM GX999 in combination with GX008A (0, 5, 10, 30, 50 mM) group. According”
The experiment set up a negative control group and a damage group with different concentrations of alloxan (concentrations of 4 mM, 7 mM, 10 mM, 15 mM, 20 mM), after 24 hours of exposure, then 4 duplicate wells were set up, and the MTT method was used to detect the cell survival rate. […] Compared with the blank control group, the P value was less than 0.01, and the difference was statistically significant.

Row | SMILES | lipid droplet content in cells compared with the differentiation group (3T3-L1 preadipocytes) | survival rate of 3T3L1 cells / cell proliferation, single agent (3T3L1 preadipocytes) | combination index CI value with alloxan [1] | cell survival rate of alloxan-damaged pancreatic β-cells, single agent [1] | IC50 (3T3L1 preadipocytes; 3T3L1 cells, MTT, read-out: IC50 (3T3L1 cell survival rate)) [mM] | cell survival rate / cell proliferation (alloxan cell damage model) ([1]; alloxan 4, 7, 10, 15, 20 mM, 24 hours, RINm5f cells, MTT)
1 | C[C@H](CC[C@@H](O[C@@H]1O[C@H](CO[C@@H]2O[C@H](CO)[C@@H](O)[C@H](O)[C@H]2O)[C@@H](O)[C@H](O)[C@H]1O[C@@H]1O[C@H](CO)[C@@H](O)[C@H](O)[C@H]1O)C(C)(C)O)[C@H]1CC[C@@]2(C)[C@@H]3CC=C4[C@@H](CC[C@H](O[C@@H]5O[C@H](CO[C@@H]6O[C@H](CO)[C@@H](O)[C@H](O)[C@H]6O)[C@@H](O)[C@H](O)[C@H]5O)C4(C)C)[C@]3(C)[C@H](O)C[C@]12C [GX008A, Mogroside V] | significantly reduced | inhibited cell proliferation in a concentration-dependent manner | greater than 1.0 | the cell survival rate could be significantly improved | – | –
2 | NC(=O)c1ccc[n+]([C@@H]2O[C@H](COP(=O)([O-])O)[C@@H](O)[C@H]2O)c1 [GX999, Nicotinamide mononucleotide] | significantly reduced | inhibited cell proliferation in a concentration-dependent manner | greater than 1.0 | the cell survival rate could be significantly improved | 51.7 ± 1.5 | –
3 | O=C1NC(=O)C(=O)C(=O)N1 [alloxan, reference compound] | – | – | – | – | – | inhibited cell proliferation in a concentration-dependent manner
